The values below come from PubChem BioAssay AID1259407 (Chemical Carcinogenesis Research Information System (CCRIS), 2018).

The data set has as its system CCRIS mutagenicity, Ames/micronucleus/aberration tests. In words: CCRIS mutagenicity studies.
[1] abbreviates: Test System: AMES SALMONELLA TYPHIMURIUM, Strain/Indicator: TA98, Metabolic Activation: NONE, Method: STANDARD PLATE.
The mark [2] stands for this setting: Test System: AMES SALMONELLA TYPHIMURIUM, Strain/Indicator: TA98, Metabolic Activation: RAT, LIVER, S-9, AROCLOR 1254, Method: STANDARD PLATE.
Setting [3] is: Test System: AMES SALMONELLA TYPHIMURIUM, Strain/Indicator: TA100, Metabolic Activation: NONE, Method: STANDARD PLATE.
The mark [4] stands for this setting: Test System: AMES SALMONELLA TYPHIMURIUM, Strain/Indicator: TA100, Metabolic Activation: RAT, LIVER, S-9, AROCLOR 1254, Method: STANDARD PLATE.
[5] abbreviates: Test System: AMES SALMONELLA TYPHIMURIUM, Strain/Indicator: TA1537, Metabolic Activation: NONE, Method: STANDARD PLATE.
Where [6] appears, read: Test System: AMES SALMONELLA TYPHIMURIUM, Strain/Indicator: TA1537, Metabolic Activation: RAT, LIVER, S-9, AROCLOR 1254, Method: STANDARD PLATE.
Setting [7] is: Test System: AMES SALMONELLA TYPHIMURIUM, Strain/Indicator: TA98, Metabolic Activation: NONE, Method: PREINCUBATION

The source made the active and inactive calls. The rule behind the calls is not given here.

For `C1=Cc2c3ccc4ccccc4c3cc3cccc1c23`, the mutagenic call (Test System: AMES SALMONELLA TYPHIMURIUM, Strain/Indicator: TA98, Metabolic Activation: HUMAN, LIVER, MICROSOMES, Method: STANDARD PLATE) was “active; positive”; the mutagenic call under setting [1] is “inactive; negative”; the mutagenic call (Test System: AMES SALMONELLA TYPHIMURIUM, Strain/Indicator: TA98, Metabolic Activation: RAT, LIVER, HEPATOCYTES, Method: PREINCUBATION) is “active; positive”; the mutagenic call (Test System: AMES SALMONELLA TYPHIMURIUM, Strain/Indicator: TA98, Metabolic Activation: RAT, LIVER, MICROSOMES, AROCLOR 1254, Method: STANDARD PLATE) is “active; positive”; the mutagenic call (Test System: AMES SALMONELLA TYPHIMURIUM, Strain/Indicator: TA98, Metabolic Activation: RAT, LIVER, MICROSOMES, Method: STANDARD PLATE) was “active; positive”; the mutagenic call (Test System: AMES SALMONELLA TYPHIMURIUM, Strain/Indicator: TA98, Metabolic Activation: RAT, LIVER, S-9, AROCLOR 1254 (0.4, 0.8, 1.15 OR 1.5 MG/PLATE), Method: STANDARD PLATE) is “active; positive”. Further, the mutagenic call was “active; positive” under setting [2]; “active; positive” (Test System: AMES SALMONELLA TYPHIMURIUM, Strain/Indicator: TA98, Metabolic Activation: RAT, LUNG, MICROSOMES, AROCLOR 1254, Method: STANDARD PLATE); “inactive; negative” (Test System: AMES SALMONELLA TYPHIMURIUM, Strain/Indicator: TA98, Metabolic Activation: RAT, LUNG, MICROSOMES, Method: STANDARD PLATE); “active; positive” (Test System: CHINESE HAMSTER OVARY, Strain/Indicator: V-79/6-THIOGUANINE, Metabolic Activation: RAT, LIVER, S-9, AROCLOR 1254, Method: FLASK ASSAY); “inactive; negative” (Test System: CHINESE HAMSTER OVARY, Strain/Indicator: V-79/6-THIOGUANINE, Metabolic Activation: SHE CELL MEDIATED, Method: FLASK ASSAY); “active; positive” (Test System: CHINESE HAMSTER V-79, Strain/Indicator: V-79/6-THIOGUANINE, Metabolic Activation: RAT, LIVER, S-9, AROCLOR 1254, Method: SUSPENSION/PLATE). Further, where the note is “Test System: UDS RAT HEPATOCYTES, Strain/Indicator: THY INCORP, Metabolic Activation: NONE, Method: LIQUID SCINTILLATION COUNTING”, the mutagenic call was “active; positive”.

In the case of `Nc1ccc(N)c2c1C(=O)c1cccc([N+](=O)[O-])c1C2=O`, the mutagenic call by setting is: under setting [1], “active; positive”; under setting [2], “active; positive”; under setting [3], “inactive; negative”; under setting [4], “inactive; negative”; (Test System: AMES SALMONELLA TYPHIMURIUM, Strain/Indicator: TA1535, Metabolic Activation: NONE, Method: STANDARD PLATE) “inactive; negative”; (Test System: AMES SALMONELLA TYPHIMURIUM, Strain/Indicator: TA1535, Metabolic Activation: RAT, LIVER, S-9, AROCLOR 1254, Method: STANDARD PLATE) “inactive; negative”. Further, the mutagenic call reads like this: under setting [5], “active; positive”; under setting [6], “inactive; negative”; (Test System: AMES SALMONELLA TYPHIMURIUM, Strain/Indicator: TA1538, Metabolic Activation: NONE, Method: STANDARD PLATE) “active; positive”; (Test System: AMES SALMONELLA TYPHIMURIUM, Strain/Indicator: TA1538, Metabolic Activation: RAT, LIVER, S-9, AROCLOR 1254, Method: STANDARD PLATE) “active; positive”; (Test System: AMES SALMONELLA TYPHIMURIUM, Strain/Indicator: TA1978, Metabolic Activation: NONE, Method: STANDARD PLATE) “inactive; negative”.

For `O=c1[nH]c(=O)n([C@H]2C[C@H](O)[C@@H](CO)O2)cc1CCCCl`, the mutagenic call reads like this: (Test System: AMES SALMONELLA TYPHIMURIUM, Strain/Indicator: TA97, Metabolic Activation: NONE, Method: PREINCUBATION) “inactive; negative”; (Test System: AMES SALMONELLA TYPHIMURIUM, Strain/Indicator: TA97, Metabolic Activation: RAT, LIVER, S-9, AROCLOR 1254, Method: PREINCUBATION) “inactive; negative”; under setting [7], “inactive; negative”; (Test System: AMES SALMONELLA TYPHIMURIUM, Strain/Indicator: TA98, Metabolic Activation: RAT, LIVER, S-9, AROCLOR 1254, Method: PREINCUBATION) “inactive; negative”; (Test System: AMES SALMONELLA TYPHIMURIUM, Strain/Indicator: TA100, Metabolic Activation: NONE, Method: PREINCUBATION) “inactive; negative”; (Test System: AMES SALMONELLA TYPHIMURIUM, Strain/Indicator: TA100, Metabolic Activation: RAT, LIVER, S-9, AROCLOR 1254, Method: PREINCUBATION) “inactive; negative”. The mutagenic call was “inactive; negative” (Test System: AMES SALMONELLA TYPHIMURIUM, Strain/Indicator: TA102, Metabolic Activation: NONE, Method: PREINCUBATION); “inactive; negative” (Test System: AMES SALMONELLA TYPHIMURIUM, Strain/Indicator: TA102, Metabolic Activation: RAT, LIVER, S-9, AROCLOR 1254, Method: PREINCUBATION); “inactive; negative” (Test System: AMES SALMONELLA TYPHIMURIUM, Strain/Indicator: TA104, Metabolic Activation: NONE, Method: PREINCUBATION); “inactive; negative” (Test System: AMES SALMONELLA TYPHIMURIUM, Strain/Indicator: TA104, Metabolic Activation: RAT, LIVER, S-9, AROCLOR 1254, Method: PREINCUBATION); “inactive; negative” (Test System: AMES SALMONELLA TYPHIMURIUM, Strain/Indicator: TA1535, Metabolic Activation: NONE, Method: PREINCUBATION); “inactive; negative” (Test System: AMES SALMONELLA TYPHIMURIUM, Strain/Indicator: TA1535, Metabolic Activation: RAT, LIVER, S-9, AROCLOR 1254, Method: PREINCUBATION). The mutagenic call reads like this: (Test System: AMES SALMONELLA TYPHIMURIUM, Strain/Indicator: TA1537, Metabolic Activation: NONE, Method: PREINCUBATION) “inactive; negative”; (Test System: AMES SALMONELLA TYPHIMURIUM, Strain/Indicator: TA1537, Metabolic Activation: RAT, LIVER, S-9, AROCLOR 1254, Method: PREINCUBATION) “inactive; negative”; (Test System: AMES SALMONELLA TYPHIMURIUM, Strain/Indicator: TA1538, Metabolic Activation: NONE, Method: PREINCUBATION) “inactive; negative”; (Test System: AMES SALMONELLA TYPHIMURIUM, Strain/Indicator: TA1538, Metabolic Activation: RAT, LIVER, S-9, AROCLOR 1254, Method: PREINCUBATION) “inactive; negative”; (Test System: CHINESE HAMSTER V-79, Strain/Indicator: V-79/8-AZAGUANINE, Metabolic Activation: NONE) “inactive; negative”.

As to `O=[N+]([O-])c1ccc(/C=C/c2ccc([N+](=O)[O-])cc2)cc1`, the mutagenic call is “active; positive” (Test System: AMES SALMONELLA TYPHIMURIUM, Strain/Indicator: TA98 (NR), Metabolic Activation: NONE, Method: STANDARD PLATE); “inactive; negative” (Test System: AMES SALMONELLA TYPHIMURIUM, Strain/Indicator: TA98 (NR), Metabolic Activation: S-9, Method: STANDARD PLATE); “active; positive” under setting [1]; “active; positive” (Test System: AMES SALMONELLA TYPHIMURIUM, Strain/Indicator: TA98, Metabolic Activation: S-9, Method: STANDARD PLATE); “inactive; negative” (Test System: AMES SALMONELLA TYPHIMURIUM, Strain/Indicator: TA100 (NR), Metabolic Activation: NONE, Method: STANDARD PLATE); “inactive; negative” (Test System: AMES SALMONELLA TYPHIMURIUM, Strain/Indicator: TA100 (NR), Metabolic Activation: S-9, Method: STANDARD PLATE). The mutagenic call by setting is: under setting [3], “active; positive”; (Test System: AMES SALMONELLA TYPHIMURIUM, Strain/Indicator: TA100, Metabolic Activation: S-9, Method: STANDARD PLATE) “active; positive”.

Regarding `c1ccc2cc3c(ccc4ccncc43)cc2c1`, the mutagenic call was “inactive; negative” under setting [1], “active; positive” under setting [2] and “active; positive” under setting [4].

Consider `O=C1Nc2cc3ccccc3c3c4c(cc1c23)OCO4`, for which the mutagenic call is “inactive; negative” under setting [3], “active; positive” under setting [4], “inactive; negative” under setting [5] and “active; positive” under setting [6].

For `CCCCNC(=O)C=Cc1ccc([N+](=O)[O-])o1`, the mutagenic call under setting [7] was “active; positive”.
